Test results reported in ChEMBL document CHEMBL1139190, “Pyrazolo[1,5-a]pyridine antiherpetics: effects of the C3 substituent on antiviral activity” (Bioorg Med Chem Lett, 2007).

What was measured:
[1] = Therapeutic index, ratio of CC50 for Vero SC16 cells to EC50 for HSV1; format: cell-based; conditions: monkey, read-out: Ratio CC50/EC50
[2] = Cytotoxicity against Vero SC16 cells; format: cell-based; conditions: chlorocebus sabaeus
[3] = test system: Human alphaherpesvirus 1; experiment: Antiviral activity against HSV1 in Vero SC16 cells by capture hybrid method; format: functional, organism-based; conditions: Human alphaherpesvirus 1, Vero

Compound | selectivity ratio [1] | CC50 [2] | EC50 [3]
Fc1ccc(-c2nn3c(NC4CCCC4)cccc3c2-c2ccnc(NC3CCCC3)n2)cc1 | > 615 | > 160 µM | 0.26 µM
Nc1nccc(-c2c(-c3ccc(F)cc3)nn3c(NC4CCCC4)cccc23)n1 | 11 | 46 µM | 4.1 µM
Fc1ccc(-c2nn3c(NC4CCCC4)cccc3c2-c2ccc3[nH]ccc3c2)cc1 | 5 | 20 µM | 3.9 µM
Fc1ccc(-c2nn3c(NC4CCCC4)cccc3c2-c2cccnc2)cc1 | > 11 | > 40 µM | 3.4 µM
Fc1ccc(-c2nn3c(NC4CCCC4)cccc3c2-c2cccnc2NC2CCCC2)cc1 |  |  | > 40 µM
Fc1ccc(-c2nn3c(NC4CCCC4)cccc3c2-c2ccc(NC3CCCC3)nc2)cc1 |  |  | > 40 µM
Cc1nc(-c2c(-c3ccc(F)cc3)nn3c(NC4CCCC4)cccc23)co1 |  |  | > 40 µM
Fc1ccc(-c2nn3c(NC4CCCC4)cccc3c2-c2ccoc2)cc1 |  |  | > 10 µM
Fc1ccc(-c2nn3c(NC4CCCC4)cccc3c2-c2cc[nH]n2)cc1 | 6 | 14 µM | 2.5 µM
Fc1ccc(-c2nn3c(NC4CCCC4)cccc3c2-c2ccco2)cc1 |  |  | > 10 µM
Nc1n[nH]cc1-c1c(-c2ccc(F)cc2)nn2c(NC3CCCC3)cccc12 | 4 | 20 µM | 4.9 µM
Nc1nc(-c2c(-c3ccc(F)cc3)nn3c(NC4CCCC4)cccc23)c[nH]1 |  |  | > 10 µM
Fc1ccc(-c2nn3c(NC4CCCC4)cccc3c2-c2c[nH]c(NC3CCCC3)n2)cc1 | 5 | 40 µM | 7.9 µM
Fc1ccc(-c2nn3c(NC4CCCC4)cccc3c2-c2ccno2)cc1 |  |  | > 10 µM
Nc1nc(-c2c(-c3ccc(F)cc3)nn3c(NC4CCCC4)cccc23)cs1 |  |  | 8.6 µM
Fc1ccc(-c2nn3c(NC4CCCC4)cccc3c2-c2ccsc2)cc1 |  |  | > 10 µM
Fc1ccc(-c2nn3c(NC4CCCC4)cccc3c2-c2cn[nH]c2)cc1 | 2 | 10 µM | 4.7 µM
Fc1ccc(-c2nn3c(NC4CCCC4)cccc3c2-c2ccnc(NC3CCCC3)c2)cc1 | > 108 | > 40 µM | 0.37 µM
Fc1ccc(-c2nn3c(NC4CCCC4)cccc3c2-c2cc(NC3CCCC3)ncn2)cc1 | > 46 | > 40 µM | 0.85 µM
NNc1cc(-c2c(-c3ccc(F)cc3)nn3c(NC4CCCC4)cccc23)ccn1 | 7 | 40 µM | 5.7 µM
[N-]=[N+]=Nc1cc(-c2c(-c3ccc(F)cc3)nn3c(NC4CCCC4)cccc23)ccn1 |  |  | > 40 µM
Fc1ccc(-c2nn3c(NC4CCCC4)cccc3c2-c2ccc(F)nc2)cc1 |  |  | > 40 µM
Fc1ccc(-c2nn3c(NC4CCCC4)cccc3c2-c2ccnnc2)cc1 |  |  | > 10 µM
Nc1cccc(-c2c(-c3ccc(F)cc3)nn3c(NC4CCCC4)cccc23)c1 |  |  | > 10 µM
Fc1ccc(-c2nn3c(NC4CCCC4)cccc3c2-c2ccnc(F)c2)cc1 |  |  | > 40 µM
